Data set [1] is described as follows: Volume of distribution in Sprague-Dawley rat. The data set is classed as ADME, organism-based. The note with it: in vivo, read-out: Vdss.
Data set [2] can be described thus: Plasma clearance in Beagle dog. The data set is classed as ADME, organism-based, Canis lupus familiaris.
The nature of data set [3]: Volume of distribution in Beagle dog. In kind it is ADME, organism-based, Canis lupus familiaris. The note with it: in vivo, read-out: Vdss.
Data set [4] is described as follows: Oral bioavailability in Sprague-Dawley rat. In kind it is ADME, organism-based. The following applies: in vivo.
Data set [5] can be described thus: Half life in Beagle dog. In kind it is ADME, organism-based, Canis lupus familiaris. The note with it: in vivo.
Data set [6] can be described thus: Oral bioavailability in Beagle dog. The data set is classed as ADME, organism-based, Canis lupus familiaris. The note with it: in vivo.
Data set [7] is described as follows: Plasma clearance in Sprague-Dawley rat. In kind it is ADME, organism-based.
Data set [8] in a line: Half life in Sprague-Dawley rat. In kind it is ADME, organism-based. The following applies: in vivo.

Regarding `C[C@@H](C(=O)N1CCOCC1)N1CC[C@H](NS(=O)(=O)CCc2ccc(Cl)s2)C1=O`, the results for the Vd in data set [1] and in data set [3] were 0.8 L/kg and 0.5 L/kg, respectively. Also, the clearance in data set [2] is 13 mL/min/kg; in data set [7] it was 28 mL/min/kg. In addition, the bioavailability in data set [4] is 31%; in data set [6], 38%. The figures for the half-life in data set [5] and in data set [8] were 30 min and 18 min, respectively.

For the compound `C/C(=C\S(=O)(=O)N[C@H]1CCN([C@@H](C)C(=O)N2CCOCC2)C1=O)c1ccc(Cl)s1`, the values for the Vd in data set [1] and in data set [3] were 0.4 L/kg and 0.3 L/kg, respectively. Besides, the clearance was 5.7 mL/min/kg in data set [2] and 21 mL/min/kg in data set [7]. The bioavailability in data set [4] is 32%; in data set [6], 48%. Also, the half-life in data set [5] is 36 min; in data set [8], 18 min.

Turning to `C[C@@H](C(=O)N1CCOCC1)N1CC[C@H](NS(=O)(=O)/C=C/c2ccc(Cl)s2)C1=O` [GW813893], the Vd was found to be 0.3 L/kg in data set [1] and 0.4 L/kg in data set [3]. In addition, the clearance in data set [2] was 4.6 mL/min/kg; in data set [7], 8 mL/min/kg.

One may read the clearance as the rate of elimination divided by the concentration. A low value points to a low capacity for elimination. What is called bioavailability is the share of a dose that reaches the circulation, judged against a reference dose that is usually intravenous. A high value points to much systemic uptake. For orientation: half-life means the time needed for the level to fall by half in the phase considered.

Source of the values: ChEMBL document CHEMBL1139928, “Selective and dual action orally active inhibitors of thrombin and factor Xa” (Bioorg Med Chem Lett, 2007).
